In publication PMC4515242, “ESR and X-ray Structure Investigations on the Binding and Mechanism of Inhibition of the Native State of Myeloperoxidase with Low Molecular Weight Fragments” (Applied Magnetic Resonance, 2015):

Legend:
[1] = ABTS radical cation decolorization assay to measure the antioxidant capacity; conditions: % inhibition at 20 uM single dose, read at 734 nm after 30 min
Experimental: The assay was modeled after the published procedure. Briefly, ABTS radical cation was prepared by adding 100 μl of 70 mM K2S2O8 to 10 ml ABTS, followed by vortexing and incubating at 37 °C water bath for 2 h. […] Trolox standards are dissolved in water. The reaction is started by adding the ABTS radical cation solution to the MPO inhibitors or Trolox (final concentration 20 μM). The plate is gently shaken for 1 min and then set on a bench top at room temperature for 30 min.

[2] = target: T1, native state (Fe3+) of hMPO (Homo sapiens, UniProt P05164); experiment: Low temperature ESR binding assay (binding-induced g shift, Rrelative); conditions: for ESR Rrelative: Rrelative = (Rbound - Rnative)/Rnative x 100, inhibitor:MPO 40:1, pH 6, 6 % DMSO, 4-7 K; for Δg: absolute difference between g X and g Y of the bound complex; for ESR Binding: class by Rrelative, inhibitor:MPO 40:1; for g X / g Y: electronic g value of the bound complex, X-band ESR, 5 K
T1 construct: purchased Athens Research and Technology
T1 sequence (P05164 49-745): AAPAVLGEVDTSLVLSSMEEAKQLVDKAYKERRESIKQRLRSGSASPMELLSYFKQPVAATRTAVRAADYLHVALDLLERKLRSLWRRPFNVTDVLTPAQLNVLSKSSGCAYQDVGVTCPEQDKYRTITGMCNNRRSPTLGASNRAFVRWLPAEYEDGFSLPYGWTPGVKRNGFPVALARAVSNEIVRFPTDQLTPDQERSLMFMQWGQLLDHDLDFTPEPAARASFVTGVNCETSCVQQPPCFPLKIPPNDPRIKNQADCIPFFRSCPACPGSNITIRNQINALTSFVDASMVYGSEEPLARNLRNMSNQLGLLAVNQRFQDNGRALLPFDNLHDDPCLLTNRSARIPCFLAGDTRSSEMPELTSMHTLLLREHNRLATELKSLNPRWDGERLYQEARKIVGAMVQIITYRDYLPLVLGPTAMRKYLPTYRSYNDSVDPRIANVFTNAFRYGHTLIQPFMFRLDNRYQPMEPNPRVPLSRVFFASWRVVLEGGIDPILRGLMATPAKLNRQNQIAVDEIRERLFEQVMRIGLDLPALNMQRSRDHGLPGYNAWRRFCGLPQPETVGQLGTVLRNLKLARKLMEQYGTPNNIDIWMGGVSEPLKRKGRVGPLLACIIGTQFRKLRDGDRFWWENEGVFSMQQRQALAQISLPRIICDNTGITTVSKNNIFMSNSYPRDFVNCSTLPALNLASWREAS
Experimental: After 5-min. incubation at room temperature, the entire reaction mixture (0.235 mL) was transferred to the ESR quartz tubes. To avoid the quartz tubes breaking during the rapid freezing cycles, the ESR tubes were initially frozen in a 1:1 Isopentane-Cyclohexane mixture cooled with dry ice powder and then transferred to a liquid nitrogen Dewar to be queued up for ESR measurements. The reaction mixture contained a final concentration of 6 % DMSO. ESR spectra were recorded on a Varian E-12, X-band spectrometer equipped with an Air Products liquid helium cryostat.
The experimental g values correspond to the spin Hamiltonian pertinent to the high-spin ion (S = 5/2).1 H=DSZ2-1/3SS+1+E/DSX2-SY2+βgeS.Be where D and E are the eigen values of the axial and rhombic field components, i.e., the symmetry of the ligand (inhibitors approaching heme in this case). […] When the heme lodges inside the protein, the protein side chain amino acid (histidine) approaches the heme vicinity and either binds (axially) directly to the iron in the heme pocket. […] Thus, the fifth ligand leads to lower (rhombic) symmetries causing the signal at g ~ 6 to split. This non-tetragonal splitting of the heme is quantitated by the relationship,2 E/D=Δg/48 where ∆g represents the absolute difference between the gX and gY components. Alternatively, making use of the fact that E/D maximum value = 1/3, one can simplify the above expression as a percentage of rhombicity, R:3 R=Δg/16×100%. […] To rank-order molecules in terms of their ability to distort the heme pocket/plane environment, we used a ratio of total distortion in the bound complex w.r.t. distortion seen in the native unbound enzyme:4 Rrelative=Rbound-Rnative/Rnative×100.
From the relative rhombicities of the bound and unbound complex, a measure of the strength of binding could be derived. […] For the ease of classification, we have empirically defined those with 5 ≤ Rrelative ≥ 2 as weak binding; 15 ≥ Rrelative ≥ 10 as moderate binding; and 25 ≥ Rrelative ≥ 15 as strong binding (Table 2).

hMPO = target: T2, hMPO (Homo sapiens, UniProt P05164); experiment: Peroxidase inhibition assay: ESR of hMPO exposed to H2O2 with and without inhibitor; assay type: biochemical; conditions: inhibitor added before H2O2 (555 μM); inhibitor:MPO 40:1, in DMSO
T2 construct: purchased Biodesign A31804H
T2 sequence (P05164 49-745): T1 sequence (P05164 49-745)
Experimental: Hydrogen peroxide (30 %, v/v; 9.71 M) is used with different dilutions in ice-cold deionized water. MPO at 50 μl of 20.8 μM (4.6 μM final concentration) is incubated with different concentrations of H2O2 in the absence and in the presence of inhibitors (inhibitor to MPO concentration is 40:1) for 1 min and rapidly frozen at 77 K. The inhibitors are added to MPO, incubated for 5 min prior to H2O2 addition in these reactions.

Human Myeloperoxidase = target: T3, Human Myeloperoxidase (Homo sapiens, UniProt P05164); experiment: X-ray co-crystal growth by soaking MPO crystals with inhibitor; conditions: crystals soaked with 50 mM inhibitor
T3 construct: purchased Lee Biosciences 426-10
T3 sequence (P05164 49-745): T1 sequence (P05164 49-745)
Experimental: Human Myeloperoxidase and co-crystals of MPO were crystallized and analyzed using methods similar to those described by Davey and Fenna. Briefly, hanging drops of 25 mg/mL MPO, 25 mM sodium acetate pH 5.0, 50 mM NaCl, 50 mM ammonium sulfate, 2 mM calcium chloride, and 3-10 % polyethylene glycol 8000 were set up at 21 °C over reservoir solutions containing 300 mM sodium chloride. Crystals of the space group P21 and having two MPO subunits per asymmetric unit grew with the aid of micro-seeding as very thin plates having a brownish orange tinge. Crystals were soaked with inhibitor compounds at a concentration of 50 mM, in a stabilizing buffer containing 18 % polyethylene glycol 8000, 56 mM ammonium sulfate, 2.2 mM calcium acetate, and 56 mM HEPES pH 7.0. Co-crystals were cryo-protected in a stabilizing buffer containing 22.2 % methylpentanediol prior to flash cooling in liquid nitrogen.
Diffraction data were collected at 100 K using Synchrotron beam line 31ID at the Advanced Photon Source (Argonne National Laboratory) and were integrated using MOSFLM v.6.2.6 [18]. […] Inhibitor binding to the MPO heme group was indicated by appropriately shaped peaks in the Fo–Fc electron density maps. The inhibitor was included in the model, and iterative cycles of manual model building with COOT [20] and restrained refinement with REFMAC v5.2.0019 [21] were used to complete the overall structure. Figures of the crystal structure were generated using PYMOL (www.pymol.org). […] The higher B-factors for the inhibitor molecules could be attributed to inhibitor occupancies of less than 1.0 or to higher degrees of thermal motion associated with the inhibitors. Lower than expected electron density peak heights were also observed for the Cl atom in the inhibitors, which could be due to the radiation damage to this X-Ray sensitive group.

[3] = ESR, Inhibitor:MPO ratio 40:1, DMSO 6 %

| proportion of the enzyme bound [2, 3] [%] | proportion of the enzyme unbound [2, 3] [%] | ESR Rrelative [2] | Δg [2] | g X [2] | g Y [2] | X ray Cocrystal result (Human Myeloperoxidase) | SMILES | % Anti oxidant potential [1] [%] | ESR Binding [2] | prevention of peroxide-induced ESR changes (decay of g X and g Y, growth of g ~ 6) (hMPO) |
| --- | --- | --- | --- | --- | --- | --- | --- | --- | --- | --- |
| 70 | 30 | 24.2 | 2.256 | 6.995 | 4.739 | Yes | O=C(O)c1nn(-c2ccccc2)cc1O [LSN17948] | 42.1 | Strong (25 ≥ Rrelative ≥ 15 as strong binding) | The spectrum is unchanged and no g intermediate signal is seen |
| – | – | 29.1 | 2.308 | 7.0681 | 4.7601 | Yes | O=C(O)c1nn(-c2cccc3ccccc23)cc1O [LSN2944556] | 67.6 | Strong (25 ≥ Rrelative ≥ 15 as strong binding) | – |
| – | – | 14.1 | 2.09 | 6.917 | 4.827 | Yes | O=C(O)c1n[nH]c(-c2ccccc2)c1O [LSN87637] | 65.9 | Moderate (15 ≥ Rrelative ≥ 10 as moderate binding) | – |
